PMC9204602, “Optimized Anchor-Modified Peptides Targeting Mutated RAS Are Promising Candidates for Immunotherapy” (Frontiers in Immunology, 2022)
No end group written: not given here.

Target: HLA-A*03:01 (Homo sapiens, UniProt P04439)
Test: not given
Assay type: binding
Conditions: not given

| Compound | EC50 [µM] |
| --- | --- |
| VVVGAAGVGK | 94 |
| VVVGARGVGK | 69.7 |
| VVGAAGVGK | 277 |
| CC[C@H](C)[C@H](N)C(=O)N[C@@H](CC(C)C)C(=O)N[C@@H](CCCNC(=N)N)C(=O)NCC(=O)N[C@@H](CO)C(=O)N[C@H](C(=O)N[C@@H](C)C(=O)N[C@@H](Cc1c[nH]cn1)C(=O)N[C@@H](CCCCN)C(=O)O)C(C)C [Flu-NP 265-273, reference compound] | 6.33 |

Target: HLA-A*02:01 (Homo sapiens, UniProt P04439, D140Y/D185E/D98H/E176V/E277Q/G131W/G231S/I119V/I121R/I166T/I218V/L300P/L318F/N151K/N90K/P208A/P217A/Q86G/Q94H/R138H/R169H/T345S)
Test: MHC-I stabilization assay, TAP-deficient T2 cells
Assay type: binding
Conditions: not given

| Compound | EC50 [µM] |
| --- | --- |
| LVVVGARGV | 429 |
| KLVVVGASGV | 72 |
| CC(C)C[C@H](NC(=O)[C@@H](N)CCCCN)C(=O)N[C@H](C(=O)N[C@H](C(=O)N[C@H](C(=O)NCC(=O)N[C@@H](C)C(=O)N[C@@H](C)C(=O)NCC(=O)N[C@H](C(=O)O)C(C)C)C(C)C)C(C)C)C(C)C | 50.2 |
| LVVVGASGV | 581 |
| KLVVVGARGV | 151 |
| YLVVGASGV | 21.2 |
| YLVVGARGV | 15.6 |

Same assay, conditions: Table 1; T2 cells, HLA-A*02:01 stabilization, serum-free RPMI, 4 hours, 37°C, peptide from 100 µM in at least 8 serial dilution steps, flow cytometry MFI (BB7.2); half-maximal MFI; analyzed three times, mean; read-out: EC50 (µM) Binding assay

| Compound | EC50 [µM] |
| --- | --- |
| YVVVGASGV | 207 |
| YLVVGACGV | 26.1 |
| LLVVGAAGV | 17.5 |
| LVVVGACGV | 619 |
| YLVVVGACGV | 95.5 |
| YLVVGADGV | 13.4 |
| YLVVVGAVGV | 15.5 |
| YLVVVGASGV | 10.7 |
| YLVVVGAAGV | 27.7 |
| LVVVGAAGV | 191 |
| YVVVGAAGV | 117 |
| YLVVVGADGV | 5.68 |
| YVVVGACGV | 138 |
| LLVVGASGV | 90.6 |
| LLVVGARGV | 23.7 |
| YLVVGAAGV | 16.4 |
| YVVVGARGV | 51.6 |
| YVVVGAVGV | 28.3 |
| LLVVGADGV | 83.4 |
| LLVVGACGV | 73.5 |
| LLVVGAVGV | 25.6 |
| YLVVGAVGV | 22.9 |
| LVVVGADGV | 453 |
| YVVVGADGV | 199 |

System: transgenic humanized HLA-A2/DR1 mice
Test: Immunization of transgenic humanized HLA-A2/DR1 mice, ex vivo splenocyte stimulation
Assay type: in vivo, mouse
Conditions: 100 μg peptide s.c. days 0, 14, 21 with 25 μg Poly I:C and 10 μg Pan-DR peptide; splenocytes one week after third injection restimulated overnight with 10 μg/mL peptide, intracellular IFN-γ; 5 mice

| Compound | CD8+ T cells in the spleen reacting to the minimal L2-9-mer peptide |
| --- | --- |
| MTEYKL L VVGA V GV GKSALTIQLIQNHFVDE [31-mer G12V peptide] | about 8% |

Same assay, conditions: same immunization; HLA-A*02:01-positive/G12V-positive CFPAC-1, overnight incubation, intracellular IFN-γ

| Compound | Recognition of CFPAC-1 cells by CD8+ T cells of immunized mice |
| --- | --- |
| MTEYKL L VVGA V GV GKSALTIQLIQNHFVDE [31-mer G12V peptide] | recognized |

Same assay, conditions: same immunization; ex vivo restimulation with WT-9-mer

| Compound | Recognition of the wild-type peptide by CD8+ T cells of immunized mice |
| --- | --- |
| MTEYKL L VVGA V GV GKSALTIQLIQNHFVDE [31-mer G12V peptide] | did not recognize |

Same assay, conditions: same immunization; ex vivo restimulation with original 9-mer

| Compound | Share of L2-9-mer-reactive CD8+ T cells that also reacted to the original 9-mer epitope |
| --- | --- |
| MTEYKL L VVGA V GV GKSALTIQLIQNHFVDE [31-mer G12V peptide] | half |

Target: HLA-A*11:01 (Homo sapiens, UniProt P04439, A114D/D185E/E176A/F33Y/L180Q/S129P/T187R)
Test: Cell-based competitive MHC-I-binding assay, CJO-A lymphoblastoid cells
Conditions: not given

| Compound | IC50 [M] |
| --- | --- |
| VVVGAAGVGK | 7.03e-06 |
| CC[C@H](C)[C@H](NC(=O)[C@@H](N)CO)C(=O)N[C@H](C(=O)N1CCC[C@H]1C(=O)N[C@@H](CO)C(=O)NCC(=O)N1CCC[C@H]1C(=O)N[C@@H](CC(C)C)C(=O)N[C@@H](CCCCN)C(=O)O)[C@@H](C)CC [Flu-MP 13-21, reference compound] | 1.44e-06 |
| VVVGARGVGK | 4.61e-05 |
| VVGAAGVGK | 1.12e-05 |

Same assay, conditions: Table S2; […], competition with 500 nM FITC-labelled KVFPK(FITC)ALINK, serum-free RPMI, 4 hours, 37°C, peptide from 100 µM, flow cytometry; analyzed three times, mean; read-out: EC/IC50 (M) Binding assay: IC50, HLA-A*11:01

| Compound | IC50 [M] |
| --- | --- |
| CC(C)[C@H](N)C(=O)N[C@H](C(=O)NCC(=O)N[C@@H](C)C(=O)N[C@@H](CO)C(=O)NCC(=O)N[C@H](C(=O)NCC(=O)N[C@@H](CCCCN)C(=O)O)C(C)C)C(C)C | 1.27e-05 |
| CC(C)[C@H](N)C(=O)N[C@H](C(=O)N[C@H](C(=O)NCC(=O)N[C@@H](C)C(=O)N[C@@H](CO)C(=O)NCC(=O)N[C@H](C(=O)NCC(=O)N[C@@H](CCCCN)C(=O)O)C(C)C)C(C)C)C(C)C | 1.02e-05 |
| VVGARGVGK | 0.000157 |
